Assay results published in the NIST ThermoML archive (doi:10.1021/je020185k).

Key:
[1] = Liquid; for mass density: 298.15 K, 101.33 kPa
[2] = xn = mol fraction of the nth substance listed; settings: 298.15 K, 101.3 kPa, Liquid

C1COCCO1 [1,4-dioxane]
[1]
Settings	Normal boiling temperature [°C]	mass density [kg/m3]
–	101.37	1027.88

CC(C)CCl [1-chloro-2-methylpropane]
Settings	mass density [kg/m3]
[1]	871.13

Settings	Normal boiling temperature [°C]
[1], Ebulliometric method (Recirculating still)	68.90

CC(C)CCl [1-chloro-2-methylpropane] + C1COCCO1
[2]
Settings	mass density [kg/m3]
x2 = 0.0529	877.81
x2 = 0.1009	883.95
x2 = 0.2001	896.98
x2 = 0.3003	910.79
x2 = 0.3957	924.5
x2 = 0.5022	940.58
x2 = 0.5945	955.19
x2 = 0.7005	972.78
x2 = 0.7926	988.8
x2 = 0.8978	1008.04
x2 = 0.9371	1015.61

CCCCCl [1-chlorobutane]
Settings	mass density [kg/m3]
[1]	880.69

Settings	Normal boiling temperature [°C]
[1], Ebulliometric method (Recirculating still)	78.37

CCCCCl [1-chlorobutane] + C1COCCO1
[2]
Settings	mass density [kg/m3]
x2 = 0.0422	885.61
x2 = 0.0947	891.8
x2 = 0.2055	905.35
x2 = 0.2766	914.45
x2 = 0.4083	932.02
x2 = 0.4852	942.87
x2 = 0.6082	961.08
x2 = 0.6587	968.92
x2 = 0.7939	990.92
x2 = 0.894	1008.37
x2 = 0.9509	1018.71

CC(C)(C)Cl [2-chloro-2-methylpropane]
Settings	mass density [kg/m3]
[1]	836.45

Settings	Normal boiling temperature [°C]
[1], Ebulliometric method (Recirculating still)	50.73

CC(C)(C)Cl [2-chloro-2-methylpropane] + C1COCCO1
[2]
Settings	mass density [kg/m3]
x2 = 0.0563	845.77
x2 = 0.1059	853.89
x2 = 0.2019	870.2
x2 = 0.3134	889.71
x2 = 0.4148	908.22
x2 = 0.5097	926.46
x2 = 0.6071	945.55
x2 = 0.7113	966.4
x2 = 0.8	984.5
x2 = 0.9062	1006.81
x2 = 0.9554	1017.73

CCC(C)Cl (centres undefined) [2-chlorobutane]
Settings	mass density [kg/m3]
[1]	867.4

Settings	Normal boiling temperature [°C]
[1], Ebulliometric method (Recirculating still)	68.11

CCC(C)Cl (centres undefined) [2-chlorobutane] + C1COCCO1
[2]
Settings	mass density [kg/m3]
x2 = 0.0522	874.11
x2 = 0.0886	878.88
x2 = 0.1892	892.48
x2 = 0.2923	907.06
x2 = 0.3647	917.71
x2 = 0.4928	937.42
x2 = 0.6155	957.41
x2 = 0.7149	974.47
x2 = 0.8019	990.07
x2 = 0.9068	1009.72
x2 = 0.941	1016.33
